According to PubChem BioAssay AID248 (DTP/NCI, 2004):
Several values for one entry are separate records, joined by “and”; a condition that tells them apart may be missing. Identical values can stand only once. Toxic doses and inconclusive results are not listed. No stated cut-off is given here; in the data, active means T/C of 150% or more; inactive means T/C below 125%.

Tested on: L1210 leukemia ip in BDF1 mice, survival T/C
Assay: NCI In Vivo Anticancer Drug Screen. Data for tumor model L1210 Leukemia (intraperitoneal) in B6D2F1 (BDF1) mice
Conditions: endpoint: mean survival time, higher = longer survival
In short: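 Tumor cells were implanted, animals were treated, and survival was followed. The result divides the treated measurement by the vehicle-control measurement.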

[1] = dose: 25.0 mg/kg/injection, schedule: Q01DX009 (ip), vehicle: saline with Tween-80
[2] = dose: 50.0 mg/kg/injection, schedule: Q01DX009 (ip), vehicle: saline with Tween-80
[3] = dose: 100.0 mg/kg/injection, schedule: Q01DX009 (ip), vehicle: saline with Tween-80
[4] = dose: 200.0 mg/kg/injection, schedule: Q01DX009 (ip), vehicle: saline with Tween-80
[5] = dose: 100.0 mg/kg/injection, schedule: Q04DX003 (ip), vehicle: saline with Tween-80
[6] = dose: 200.0 mg/kg/injection, schedule: Q04DX003 (ip), vehicle: saline with Tween-80
[7] = dose: 400.0 mg/kg/injection, schedule: Q04DX003 (ip), vehicle: saline with Tween-80
[8] = dose: 100.0 mg/kg/injection, schedule: Q01DX009 (ip), vehicle: saline
[9] = dose: 200.0 mg/kg/injection, schedule: Q01DX009 (ip), vehicle: saline
[10] = dose: 400.0 mg/kg/injection, schedule: Q01DX009 (ip), vehicle: saline
[11] = dose: 100.0 mg/kg/injection, schedule: Q04DX003 (ip), vehicle: Klucel (hydroxypropylcellulose) (HPC)
[12] = dose: 200.0 mg/kg/injection, schedule: Q04DX003 (ip), vehicle: Klucel (hydroxypropylcellulose) (HPC)
[13] = dose: 400.0 mg/kg/injection, schedule: Q04DX003 (ip), vehicle: Klucel (hydroxypropylcellulose) (HPC)
[14] = dose: 50.0 mg/kg/injection, schedule: Q01DX009 (ip), vehicle: saline
[15] = dose: 100.0 mg/kg/injection, schedule: Q01DX001 (ip), vehicle: saline
[16] = dose: 200.0 mg/kg/injection, schedule: Q01DX001 (ip), vehicle: saline
[17] = dose: 100.0 mg/kg/injection, schedule: Q01DX009 (ip), vehicle: Klucel (hydroxypropylcellulose) (HPC)
[18] = dose: 200.0 mg/kg/injection, schedule: Q01DX009 (ip), vehicle: Klucel (hydroxypropylcellulose) (HPC)
[19] = dose: 100.0 mg/kg/injection, schedule: Q04DX003 (ip), vehicle: saline
[20] = dose: 200.0 mg/kg/injection, schedule: Q04DX003 (ip), vehicle: saline
[21] = dose: 400.0 mg/kg/injection, schedule: Q01DX009 (ip), vehicle: Klucel (hydroxypropylcellulose) (HPC)

Measured: T/C

Cn1c2nc(=O)n(-c3ccccc3)c(=O)c-2nc2c1CCCC2
inactive: dose: 6.25 mg/kg/injection, schedule: Q01DX009 (ip), vehicle: saline with Tween-80 110 % of control | dose: 12.5 mg/kg/injection, schedule: Q01DX009 (ip), vehicle: saline with Tween-80 106 % of control | [1] 101 % of control | [2] 103 % of control | [3] 105 % of control | [4] 100 % of control

CCOc1c[n+](C)c(/C=C/c2ccccc2)s1
inactive: dose: 5.0 mg/kg/injection, schedule: Q01DX001 (ip), vehicle: carboxymethylcellulose (CMC) 108 % of control | dose: 10.0 mg/kg/injection, schedule: Q01DX001 (ip), vehicle: carboxymethylcellulose (CMC) 97 % of control | dose: 20.0 mg/kg/injection, schedule: Q01DX001 (ip), vehicle: carboxymethylcellulose (CMC) 94 % of control | dose: 40.0 mg/kg/injection, schedule: Q01DX001 (ip), vehicle: carboxymethylcellulose (CMC) 103 % of control

O=C(O)C(Cc1ccccc1)N1C(=O)C2C3CCC(C3)C2C1=O (centres undefined)
inactive: dose: 25.0 mg/kg/injection, schedule: Q04DX003 (ip), vehicle: saline with Tween-80 93 % of control | dose: 50.0 mg/kg/injection, schedule: Q04DX003 (ip), vehicle: saline with Tween-80 93 % of control | [5] 100 % of control and 107 % of control | [6] 110 % of control | [7] 103 % of control

Cc1c(Cl)cccc1NC(=O)NC(=O)c1ccccc1
inactive: [2] 101 % of control | [3] 108 % of control | [4] 97 % of control

Nc1cnccc1Nc1ccc(-c2ccccc2)cc1
inactive: [3] 92 % of control

CCCCOC(=O)CNC(=O)c1ccc([N+](=O)[O-])s1
inactive: dose: 50.0 mg/kg/injection, schedule: Q01DX005 (ip), vehicle: saline 102 % of control | dose: 100.0 mg/kg/injection, schedule: Q01DX005 (ip), vehicle: saline 98 % of control | dose: 400.0 mg/kg/injection, schedule: Q01DX005 (ip), vehicle: saline 91 % of control

CC([NH-])c1ccccc1.[Cl][Pt]([Cl])[Cl] (centres undefined)
inactive: [8] 97 % of control | [9] 92 % of control | [10] 87 % of control

[N-]=[N+]=NC(=O)c1cccc2c1Cc1ccccc1-2
inactive: [5] 96 % of control | [6] 86 % of control | [7] 96 % of control

CCCCCCCCCCCCCCCC(=O)Nc1ccc(C(C)=O)cc1
inactive: [11] 91 % of control | [12] 88 % of control | [13] 95 % of control

CC(=O)OC1CCC2(C)C(CCC3C2CCC2(C)C3CC3OC(CCC(C)O)C(C)C32)C1 (centres undefined)
inactive: dose: 25.0 mg/kg/injection, schedule: Q04DX002 (ip), vehicle: saline with Tween-80 102 % of control | dose: 50.0 mg/kg/injection, schedule: Q04DX002 (ip), vehicle: saline with Tween-80 98 % of control | dose: 100.0 mg/kg/injection, schedule: Q04DX002 (ip), vehicle: saline with Tween-80 94 % of control

O=c1cc(NCc2cccc(Cl)c2)[nH]c(=O)[nH]1
inactive: dose: 100.0 mg/kg/injection, schedule: Q01DX001 (ip), vehicle: saline with Tween-80 91 % of control | dose: 200.0 mg/kg/injection, schedule: Q01DX001 (ip), vehicle: saline with Tween-80 86 % of control | dose: 400.0 mg/kg/injection, schedule: Q01DX001 (ip), vehicle: saline with Tween-80 89 % of control

Cc1cccc(C)c1-c1c2ccccc2cc2ccccc12
inactive: [8] 95 % of control | [5] 96 % of control | [9] 93 % of control | [6] 96 % of control | [10] 87 % of control | [7] 93 % of control

C1CC[N+]2(CC1)CCC2
inactive: dose: 12.0 mg/kg/injection, schedule: Q04DX003 (ip), vehicle: saline 106 % of control | dose: 12.5 mg/kg/injection, schedule: Q01DX009 (ip), vehicle: saline 97 % of control | dose: 25.0 mg/kg/injection, schedule: Q01DX009 (ip), vehicle: saline 100 % of control | dose: 25.0 mg/kg/injection, schedule: Q04DX003 (ip), vehicle: saline 94 % of control | [14] 100 % of control | dose: 50.0 mg/kg/injection, schedule: Q04DX003 (ip), vehicle: saline 111 % of control | [15] 107 % of control | [16] 115 % of control

COCCCN1CC2CCCC1O2 (centres undefined)
inactive: dose: 50.0 mg/kg/injection, schedule: Q01DX001 (ip), vehicle: saline 91 % of control | [15] 95 % of control | [16] 97 % of control

CCCCCCCCCCCC(O)CCCC (centres undefined)
inactive: [17] 90 % of control | [11] 96 % of control | [18] 95 % of control | [12] 91 % of control | [13] 90 % of control

C1=C\C2CC2CCCC/1 (centres undefined)
inactive: dose: 12.5 mg/kg/injection, schedule: Q01DX005 (ip), vehicle: saline with Tween-80 86 % of control | dose: 25.0 mg/kg/injection, schedule: Q01DX005 (ip), vehicle: saline with Tween-80 96 % of control | [1] 98 % of control | dose: 50.0 mg/kg/injection, schedule: Q01DX005 (ip), vehicle: saline with Tween-80 89 % of control | [2] 94 % of control | [3] 102 % of control

O=C(C1C2C=CC(CC2)C1C(=O)N1CCOCC1)N1CCOCC1 (centres undefined)
inactive: [19] 100 % of control | [20] 96 % of control | dose: 400.0 mg/kg/injection, schedule: Q04DX003 (ip), vehicle: saline 96 % of control

COc1ccc(O)c(/C=N\Nc2ccccc2)c1
inactive: [17] 89 % of control | [11] 96 % of control | [18] 91 % of control | [12] 94 % of control | [21] 86 % of control | [13] 92 % of control

C=COCCN(C)C
inactive: [14] 90 % of control | [8] 93 % of control | [19] 105 % of control | [9] 93 % of control | [20] 89 % of control

Cc1nnc(N)nc1C
inactive: dose: 100.0 mg/kg/injection, schedule: Q04DX002 (ip), vehicle: Klucel (hydroxypropylcellulose) (HPC) 95 % of control | dose: 200.0 mg/kg/injection, schedule: Q04DX002 (ip), vehicle: Klucel (hydroxypropylcellulose) (HPC) 103 % of control | dose: 400.0 mg/kg/injection, schedule: Q04DX002 (ip), vehicle: Klucel (hydroxypropylcellulose) (HPC) 95 % of control

Fc1c(F)c(C(F)(F)F)c(F)c(F)c1P(c1c(F)c(F)c(C(F)(F)F)c(F)c1F)c1c(F)c(F)c(C(F)(F)F)c(F)c1F
inactive: dose: 75.0 mg/kg/injection, schedule: Q01DX009 (ip), vehicle: Klucel (hydroxypropylcellulose) (HPC) 123 % of control | [11] 97 % of control | dose: 150.0 mg/kg/injection, schedule: Q01DX009 (ip), vehicle: Klucel (hydroxypropylcellulose) (HPC) 96 % of control | [12] 100 % of control | dose: 300.0 mg/kg/injection, schedule: Q01DX009 (ip), vehicle: Klucel (hydroxypropylcellulose) (HPC) 100 % of control | [13] 100 % of control

C/C=C1\CCC2C(=C1C)CC1C2CC=C2CC(OC(C)=O)CCC21C (centres undefined)
inactive: [17] 97 % of control | [11] 94 % of control | [18] 87 % of control | [12] 91 % of control | [21] 90 % of control | [13] 93 % of control
